Assay results from patent publication US5256528A, “Magenta image-dye couplers of improved hue” (Eastman Kodak Company, priority 1992, dated 1993).

Tests used:
[1] = Photographic gamma with coupler solvents and addenda (KODAK FLEXICOLOR C-41 variants); details: Table VI, no DIR coupler
Method: (§1) Dispersions of the coupler B3 were prepared with coupler solvents S1 and C2, both at a 1:1 B3:coupler solvent weight ratio. Dispersions of coupler M1 were prepared with C2 at 1:1 and with C2 plus aniline A1 at a 1:0.8:0.2 M1:C2:A1 weight ratio. These dispersions were prepared by dissolving the coupler in a mixture of coupler solvent, aniline A1 (optional) and cyclohexanone. The coupler:cyclohexanone weight ratio was 1:3. This mixture was then added to an aqueous solution of gelatin and ALKANOL XC surfactant. The two-phase mixture was then passed through a colloid mill to disperse the coupler-containing oil phase in the aqueous phase in the form of small droplets. The dispersion was then chilled, noodled and washed to remove the auxiliary cyclohexanone solvent. The resulting dispersions contained approximately 2% by weight of coupler and 6% by weight of gelatin.
The dispersions were then coated on a transparent support together with a silver bromoiodide emulsion in the format shown below. Coatings were then exposed through a stepwedge and subjected to variants of the KODAK FLEXICOLOR (C-41) process described below. One set of film samples was processed with an acetic acid stop bath between the development and bleach steps (process A). A second set of films was processed without a stop bath and with the bleach pH adjusted to 6.0 instead of the normal 5.25 (process B). This is intended to simulate behavior in a "seasoned" bleach whose pH increases due to carry-over of base from the developer solution. The difference between Dmin values (densities obtained in unexposed portions of the films) between process A and process B are due to continued coupling between coupler and developer carried over into the bleach. […] Since conditions similar to process B are encountered in simplified trade processing, it is desirable to minimize continued coupling, as measured by the delta Dmin of process B - process A. These delta Dmin values are listed in Table VI along with λmax values and gamma values (obtained from plots of status M green density versus exposure). […]

[2] = λmax with coupler solvents and addenda (KODAK FLEXICOLOR C-41 variants); format: physicochemical; details: Table VI
Method: as §1
(§2) The dispersions were then coated on a transparent support together with a silver bromoiodide emulsion in the format shown below. Coatings were then exposed through a stepwedge and subjected to variants of the KODAK FLEXICOLOR (C-41) process described below. One set of film samples was processed with an acetic acid stop bath between the development and bleach steps (process A). A second set of films was processed without a stop bath and with the bleach pH adjusted to 6.0 instead of the normal 5.25 (process B). This is intended to simulate behavior in a "seasoned" bleach whose pH increases due to carry-over of base from the developer solution. The difference between Dmin values (densities obtained in unexposed portions of the films) between process A and process B are due to continued coupling between coupler and developer carried over into the bleach. Both the lack of a stop bath and the high bleach pH in process B aggravate continued coupling. It is desirable to minimize Dmin density and Dmin variability due to continued coupling. Since conditions similar to process B are encountered in simplified trade processing, it is desirable to minimize continued coupling, as measured by the delta Dmin of process B - process A. These delta Dmin values are listed in Table VI along with λmax values and gamma values (obtained from plots of status M green density versus exposure).
(§3) 2.6 g/sq m Gelatin + 1.75 weight % BVSME* Hardener
(§4) Coupler Solvent + or - A1 @ equal weight to coupler
(§5) 1.08 g/sq m Silver Emulsion
(§6) //////Cellulose Acetate Butyrate Support//////
(§7) Also included in this comparison was a 1:1 dispersion of M1 plus C2 to which was added the DIR coupler D1 (shown above) at a M1:D1 weight ratio of 1:0.045.

[3] = Photographic gamma (slope of status M green density vs. exposure), C-41 process; details: coupler:S1 1:0.5
Method: (§8) Dispersions of the comparative couplers B1-B3 and B8 and of the couplers of this invention M1-M3 were prepared by dissolving the coupler in the coupler solvent S1 plus the auxiliary solvent 2-(2-butoxyethoxy)ethyl acetate and then dispersing this oil phase in an aqueous solution of gelatin and surfactant using an ultrasonic probe. The dispersions were chilled and washed for 6 hr at 4° C. to remove the auxiliary solvent. The dispersions contained approximately 8.8% coupler, 4.4% S1 and 6% gelatin by weight.
(§9) The dispersions were coated at 1.04 mmole/sq m together with a silver bromoiodide emulsion on a transparent acetate support in the format shown below. Hardened film strips were exposed through a 0-4 neutral density stepwedge and daylight V and WRATTEN 9 filters and subjected to a standard C-41 process at 37.8° C. The process consists of 2.5 min in color developer, 4 min in a ferric EDTA/PDTA bleach solution, 2 min wash, 4 min fix and 2 min final wash. Photographic gamma values were obtained from the slopes of plots of status M green density vs. exposure for processed samples. Absorption spectra of the dye-containing processed films were measured at a density near 1.0 on a spectrophotometer and the wavelengths of maximum absorption (λ max values) were recorded.
(§10) BVSM* Hardener 0.06 g/sq m
(§11) Coupler Solvent S1 1/2 coupler laydown
(§12) Dispersions of couplers B3, M1 and M5 with S1 (1:0.5) were prepared and coated as in Example 2. Film strips of these coatings were exposed, processed and analyzed as in Example 2. λmax values and gamma values associated with these film compositions are listed in Table III. This series further illustrates the use of electron-withdrawing substituents to obtain magenta dyes of the proper hue.
(§13) Dispersions of the comparative couplers B4, B5 and B8 and the couplers of this invention M6-M11 were prepared and coated as in Example 2. The coupler solvent S1 was again used at a 1:0.5 coupler:S1 weight ratio. Film strips of the hardened coatings were exposed, processed and analyzed as in Example 2. Couplers B4 and M6-M8 have a strongly electron-withdrawing alkoxycarbonyl substituent in the R2 position and couplers B5 and M9-M11 have a strongly electron-withdrawing alkylsulfonyl group at R2. […] The couplers of this invention, M6-M11, which have strong electron-withdrawing groups in each ring, yield dyes having the desired bathochromic hues, as shown by the λmax values. The gamma values obtained with the couplers of this invention are suitably high to be useful in photographic materials, as indicated by comparison to the gamma obtained from the commercial coupler B8.
(§14) Dispersions of the comparison couplers B6 and B7, and of the couplers of this invention M12-M17, were prepared using the coupler solvent Sl as in Example 2. These were coated as in Example 2, and hardened film strips were exposed, processed and analyzed as in Example 2. The results obtained are summarized in Table V. In this example all of the couplers have sulfamoyl or alkylsulfonyl substituents in the R1 position and the R2 substituent on the 3-anilino ring is varied. Comparative couplers B6 and B7 have chloro substituents at R2, whereas M12-M17 of this invention have strong electron withdrawing R2 groups. […] The gamma values of the couplers of this invention are similar to those of the comparative couplers.

[4] = Continued coupling in bleach, delta Dmin process B - process A; details: Table VI
Method: as §1, §2, §3, §4, §5, §6
or Standard C-41 Bleach II
2B Bleach II Adjusted to pH = 6.0
as §7

[5] = Absorption spectra of dye-containing processed films (λmax), C-41 process; format: physicochemical; details: coupler:S1 1:0.5
Method: as §8, §9, §10, §11, §12, §13, §14

[6] = Formaldehyde exposure test (loss of dye density obtainable on processing); details: Table II, Example 3; 48 hr formaldehyde exposure, 60% RH; relative to water-glycerol only
Excerpt: Prior examples of 3-anilino-1-phenyl-5-pyrazolone couplers that yield bathochromic dyes have been limited to four-equivalent couplers or to couplers with coupling-off groups other than arylthio or alkylthio groups. The four-equivalent couplers are not suitable for the practice of this invention because of their high propensity to react with formaldehyde or other hardeners. This can be illustrated by exposing coupler-containing films to formaldehyde and noting the changes in the dye density obtainable upon photographic processing. To obtain the data in Table II one set of film strips was suspended in a light-tight tank over a beaker containing 10 g of formaldehyde, and a solution of 14 g of water and 36 g of glycerol (60% RH) for 48 hr. A second set of strips was suspended for 48 hr over a water-glycerol solution without the beaker of formaldehyde. The strips were then exposed through a stepwedge, process (C-41) and the densities were measured. Values of the percent reduction in (Dmax-Dmin) for the samples exposed to formaldehyde relative to the samples exposed to water-glycerol only were determined.
Coatings of B8,B9 and M1 prepared as described in Example 2 were subjected to the formaldehyde test.

[7] = Unwanted blue light absorption of magenta dye in film (absorption spectra, FIGURE); format: physicochemical; details: relative to dye derived from comparative coupler B5
Method: as §9
Dispersions of the comparative couplers B4, B5 and B8 and the couplers of this invention M6-M11 were prepared and coated as in Example 2. The coupler solvent S1 was again used at a 1:0.5 coupler:S1 weight ratio. Film strips of the hardened coatings were exposed, processed and analyzed as in Example 2. Couplers B4 and M6-M8 have a strongly electron-withdrawing alkoxycarbonyl substituent in the R2 position and couplers B5 and M9-M11 have a strongly electron-withdrawing alkylsulfonyl group at R2. […]

[8] = C2(1.0), no aniline, no DIR coupler
[9] = S1(1.0), no aniline, no DIR coupler
[10] = C2(0.8), aniline A1(0.2), no DIR coupler
[11] = C2(1.0), no aniline, DIR coupler D1(0.045)

Row | Structure (SMILES) | Gamma ([1]; C2(1.0), no aniline) | Gamma ([1]; S1(1.0), no aniline) | λmax(nm) [2, 8] | λmax(nm) [2, 9] | Gamma ([3]; Table I, Example 2) | Gamma ([3]; Table III, Example 4) | Delta Dmin Process B-A [4, 8] | Delta Dmin Process B-A [4, 9] | λmax(nm) (+-0.5) ([5]; Table I, Example 2) | λmax(nm) (+-0.5) ([5]; Table III, Example 4) | Gamma ([1]; C2(0.8), aniline A1(0.2)) | λmax(nm) [2, 10] | λmax(nm) [2, 11] | % Density Loss after Formaldehyde Exposure [6] | Delta Dmin Process B-A [4, 10] | Delta Dmin Process B-A [4, 11] | unwanted blue light absorption at 480 nm [7] | Gamma ([3]; Table IV, Example 5) | λmax(nm) (+-0.5) ([5]; Table IV, Example 5)
1 | CCCCCCCCCCCCNS(=O)(=O)c1ccc(NC2=NN(c3c(Cl)cc(Cl)cc3Cl)C(=O)C2Sc2cc(C(C)(C)CC(C)(C)C)ccc2OCCCC)c(Cl)c1 (centres unmarked) [Coupler B3, reference compound] | 1.78 | 2.10 | 544 nm | 548 nm | 4.7 | 4.5 | 0.071 | 0.191 | 546.0 nm | 546.5 nm | – | – | – | – | – | – | – | – | –
2 | CCCCCCCCCCCCNS(=O)(=O)c1ccc(NC2=NN(c3c(Cl)cc(S(=O)(=O)N4CCOCC4)cc3Cl)C(=O)C2Sc2cc(C(C)(C)CC(C)(C)C)ccc2OCCCC)c(Cl)c1 (centres unmarked) [Coupler M1] | – | – | 549 nm | – | – | 4.4 | 0.073 | – | 550.5 nm | – | 1.83 | 549 nm | 549 nm | 3% | 0.040 | 0.088 | – | – | –
3 | CCCCCCCCCCCCS(=O)(=O)c1ccc(NC2=NN(c3c(Cl)cc(C#N)cc3Cl)C(=O)C2Sc2cc(C(C)(C)CC(C)(C)C)ccc2OCCCC)c(Cl)c1 (centres unmarked) [Coupler M11] | – | – | – | – | – | – | – | – | – | – | – | – | – | – | – | – | less unwanted blue light absorption at 480 nm | 3.3 | 551.0 nm
